In ChEMBL document CHEMBL1201862, “PubChem BioAssay data set” (2004):
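Grown in 96-well plates, cells were treated for 48 hours with each compound at five concentrations. Insufficient inhibition: endpoint recorded as highest concentration tested. At the GI50, growth is halved.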 Active and inactive are the calls of the source. No stated cut-off is given here; in the data, active = GI50 up to about 1.1 µM and inactive = higher.

Key:
Test in all cases: inhibition of tumour cell growth, NCI panel, 48 h
HOP-62 = tested on: HOP-62
HCT-15 = tested on: HCT-15
SNB-75 = tested on: SNB-75
SF-268 = tested on: SF-268
SNB-19 = tested on: SNB-19
CCRF-CEM = tested on: CCRF-CEM
SW-620 = tested on: SW-620
SF-539 = tested on: SF-539
RPMI-8226 = tested on: RPMI-8226
SF-295 = tested on: SF-295
SN12C = tested on: SN12C
COLO 205 = tested on: COLO 205
RXF 393 = tested on: RXF 393
HL-60 = tested on: HL-60
A498 = tested on: A498

Row | SMILES | GI50 (HOP-62) | GI50 (HCT-15) [µM] | GI50 (SNB-75) | GI50 (SF-268) | GI50 (SNB-19) | GI50 (CCRF-CEM) | GI50 (SW-620) | GI50 (SF-539) | GI50 (RPMI-8226) | GI50 (SF-295) | GI50 (SN12C) | GI50 (COLO 205) | GI50 (RXF 393) | GI50 (HL-60) | GI50 (A498)
1 | O=C1c2ccccc2C(=O)c2nc3ccc(Cl)cc3cc21 | > 100 µM (inactive) | > 100 | > 100 µM (inactive) | > 100 µM (inactive) | > 100 µM (inactive) | > 100 µM (inactive) | > 100 µM (inactive) | > 100 µM (inactive) | > 100 µM (inactive) | 52.5 µM (inactive) | > 100 µM (inactive) | > 100 µM (inactive) |  |  | 
2 | CCC(CC)n1c(C)nc2c1C(=O)c1ccccc1C2=O | 33.4 µM (inactive) | 9.18 | 20.6 µM (inactive) | 49.2 µM (inactive) | 71.1 µM (inactive) | 42.6 µM (inactive) | 52.2 µM (inactive) | 34 µM (inactive) |  | 39.4 µM (inactive) | 46.3 µM (inactive) | 26.9 µM (inactive) | 35.2 µM (inactive) | 10.7 µM (inactive) | 
3 | COc1ccc([C@H]2CC(=O)NCCCCN2)cc1 | > 100 µM (inactive) | > 100 | 55.2 µM (inactive) | > 100 µM (inactive) | > 100 µM (inactive) | > 100 µM (inactive) |  | > 100 µM (inactive) | > 100 µM (inactive) | > 100 µM (inactive) | > 100 µM (inactive) | > 100 µM (inactive) | > 100 µM (inactive) |  | > 100 µM (inactive)
4 | O=C1CCC(=O)c2c1c(O)c1ccncc1c2O | 30.9 µM (inactive) | 12.9 | 18.7 µM (inactive) |  | 26 µM (inactive) | 14.8 µM (inactive) | 16.4 µM (inactive) | 15.6 µM (inactive) | 17.5 µM (inactive) | 18 µM (inactive) | 17.5 µM (inactive) | 7.94 µM (inactive) | 21 µM (inactive) | 7.94 µM (inactive) | 
5 | CC(C)[C@H]1CO[C@@H]2O[C@H](C)CC(=O)N21 | > 100 µM (inactive) | > 100 | > 100 µM (inactive) | > 100 µM (inactive) | > 100 µM (inactive) | > 100 µM (inactive) | > 100 µM (inactive) | > 100 µM (inactive) | > 100 µM (inactive) | > 100 µM (inactive) | > 100 µM (inactive) | > 100 µM (inactive) | > 100 µM (inactive) | > 100 µM (inactive) | 
6 | Cc1ccc(/N=N/c2ccc(N(CCC#N)CCC#N)cc2C)c(Br)c1 | 16.6 µM (inactive) | 2.78 | 11.3 µM (inactive) | 21.1 µM (inactive) | 32.4 µM (inactive) | 5.85 µM (inactive) | 21.9 µM (inactive) | 14.4 µM (inactive) | 4.33 µM (inactive) | 18.7 µM (inactive) | 19.4 µM (inactive) | 38.1 µM (inactive) | 9.27 µM (inactive) | 5.42 µM (inactive) | 51.9 µM (inactive)
7 | CC1COS(=O)O1 (stereo not drawn) | > 100 µM (inactive) | > 100 | 63 µM (inactive) | > 100 µM (inactive) | > 100 µM (inactive) | > 100 µM (inactive) | > 100 µM (inactive) | > 100 µM (inactive) | > 100 µM (inactive) | > 100 µM (inactive) | > 100 µM (inactive) | > 100 µM (inactive) |  | > 100 µM (inactive) | > 100 µM (inactive)
8 | O=C1OC(=O)c2c1c(-c1ccccc1)cn2-c1ccc(Cl)cc1 | 14.6 µM (inactive) | 45.3 | > 100 µM (inactive) | > 100 µM (inactive) | > 100 µM (inactive) | 35.6 µM (inactive) | > 100 µM (inactive) | > 100 µM (inactive) | 26.8 µM (inactive) | > 100 µM (inactive) | > 100 µM (inactive) | 10.6 µM (inactive) |  | 1.15 µM (inactive) | 
9 | N/N=C(\Cc1ccccc1)NN=C(N)N |  | 74.8 | > 100 µM (inactive) | > 100 µM (inactive) |  | 26.5 µM (inactive) | > 100 µM (inactive) | > 100 µM (inactive) | > 100 µM (inactive) | > 100 µM (inactive) | > 100 µM (inactive) | > 100 µM (inactive) |  | > 100 µM (inactive) | > 100 µM (inactive)
10 | COc1nc(NC2OC(COC(C)=O)C(OC(C)=O)C(OC(C)=O)C2OC(C)=O)c(-c2csc(N)n2)c(=O)n1C (stereo not drawn) | 29.6 µM (inactive) | > 100 | 18.4 µM (inactive) | 25.9 µM (inactive) | > 100 µM (inactive) | > 100 µM (inactive) | > 100 µM (inactive) | 54.2 µM (inactive) | > 100 µM (inactive) | 68.4 µM (inactive) | > 100 µM (inactive) | > 100 µM (inactive) |  |  | > 100 µM (inactive)
11 | NC(=O)N/N=C(\CC1OC(=O)c2ccccc21)c1ccco1 (stereo not drawn) |  | > 100 | > 100 µM (inactive) | > 100 µM (inactive) | > 100 µM (inactive) | > 100 µM (inactive) | > 100 µM (inactive) | > 100 µM (inactive) |  | > 100 µM (inactive) |  | > 100 µM (inactive) | > 100 µM (inactive) | > 100 µM (inactive) | > 100 µM (inactive)
12 | N#C/C(=C\c1ccc2ccccc2c1)c1ccccc1 | 26.6 µM (inactive) | 23.6 | 23.2 µM (inactive) | 39.6 µM (inactive) |  | 32.5 µM (inactive) | 28.8 µM (inactive) | 17.3 µM (inactive) | 53.1 µM (inactive) | 20.2 µM (inactive) | 39.8 µM (inactive) | 17.8 µM (inactive) | 38.8 µM (inactive) |  | 23.6 µM (inactive)
13 | CCCCCCCCCCCCNC(=S)OC | 18 µM (inactive) | 14.6 | 16.8 µM (inactive) | 16.6 µM (inactive) | 24.7 µM (inactive) | 10.5 µM (inactive) | 16.6 µM (inactive) | 17 µM (inactive) | 7.98 µM (inactive) | 19.4 µM (inactive) | 14.3 µM (inactive) |  | 12.8 µM (inactive) | 10.5 µM (inactive) | 16.9 µM (inactive)
14 | COC(=O)C(C(=O)C(=O)Nc1nc2ccc([N+](=O)[O-])cc2s1)c1nc2ccc(Cl)cc2nc1O (stereo not drawn) | > 100 µM (inactive) | > 100 | 52 µM (inactive) | > 100 µM (inactive) | > 100 µM (inactive) | > 100 µM (inactive) | > 100 µM (inactive) | > 100 µM (inactive) | > 100 µM (inactive) | > 100 µM (inactive) | > 100 µM (inactive) | > 100 µM (inactive) | > 100 µM (inactive) | > 100 µM (inactive) | 21.2 µM (inactive)
15 | COC(=O)C1=NC(=S)NC(c2ccccc2)C1c1nc2ccccc2o1 (stereo not drawn) | > 50 µM (inactive) | > 50 |  | > 50 µM (inactive) | > 50 µM (inactive) | > 50 µM (inactive) | > 50 µM (inactive) | > 50 µM (inactive) | > 50 µM (inactive) | > 50 µM (inactive) | > 50 µM (inactive) | > 50 µM (inactive) | 20.1 µM (inactive) | > 50 µM (inactive) | > 50 µM (inactive)
16 | O=C(N/C(=C\c1ccc(Oc2ccc(Cl)c(Cl)c2)cc1)c1nc2ccccc2[nH]1)c1ccccc1 |  | 23.2 |  | 18.1 µM (inactive) | 15.6 µM (inactive) | 17.1 µM (inactive) | 16.6 µM (inactive) | 18 µM (inactive) |  | 15.1 µM (inactive) | 18.4 µM (inactive) | 21.9 µM (inactive) | 13.9 µM (inactive) |  | 
17 | CN(C(=O)C12C3C4C1C1C2C3C41C(N)=O)C(C)(C)C (stereo not drawn) |  |  | > 100 µM (inactive) | > 100 µM (inactive) | > 100 µM (inactive) | > 100 µM (inactive) | > 100 µM (inactive) | > 100 µM (inactive) |  | > 100 µM (inactive) | > 100 µM (inactive) | > 100 µM (inactive) |  | > 100 µM (inactive) | > 100 µM (inactive)
18 | Cc1ccc(NC(=O)CCC(CC(=O)C(C)(C)C)=NNC(=O)C(=O)NN)cc1C | > 100 µM (inactive) | > 100 | > 100 µM (inactive) | > 100 µM (inactive) | > 100 µM (inactive) | > 100 µM (inactive) | > 100 µM (inactive) | > 100 µM (inactive) | > 100 µM (inactive) | > 100 µM (inactive) | > 100 µM (inactive) | > 100 µM (inactive) | > 100 µM (inactive) | > 100 µM (inactive) | 
19 | O=C(/C=C/c1ccc(Cl)c(Cl)c1)c1cccc2ccccc12 | 17 µM (inactive) | 2.54 | 3.51 µM (inactive) | 4.52 µM (inactive) | 6.85 µM (inactive) | 2.53 µM (inactive) | 1.71 µM (inactive) | 2.96 µM (inactive) | 2.29 µM (inactive) | 11.4 µM (inactive) | 16.9 µM (inactive) | 12.3 µM (inactive) |  | 2.07 µM (inactive) | 22.5 µM (inactive)
20 | COc1ccc(/C=C/C(=O)c2sc(N)nc2C)cc1 | > 100 µM (inactive) | > 100 | > 100 µM (inactive) | > 100 µM (inactive) | > 100 µM (inactive) | > 100 µM (inactive) | > 100 µM (inactive) | > 100 µM (inactive) | > 100 µM (inactive) | > 100 µM (inactive) | > 100 µM (inactive) | > 100 µM (inactive) | > 100 µM (inactive) | > 100 µM (inactive) | > 100 µM (inactive)
21 | CCCCCCCCCCCCn1[nH]c(C)c(C(=S)SCCCCCCCC)c1=O | 50.1 µM (inactive) | 21 | > 100 µM (inactive) | > 72.6 µM (inactive) | > 82.8 µM (inactive) | 28.1 µM (inactive) | 35.2 µM (inactive) | 73.8 µM (inactive) |  | > 63 µM (inactive) | 86.3 µM (inactive) | 37.2 µM (inactive) | 37.3 µM (inactive) | 45.1 µM (inactive) | > 100 µM (inactive)
